Source: patent publication US3969530A, “4-Hydroxy-3,5-di-alkyl-phenyl-propionic acid composition suitable as lipid lowering and anti-diabetic agents” (Hoechst Aktiengesellschaft, priority 1972, dated 1976)

Assays:
serum lipid values = assay: Reduction of serum lipid values in normolipemic rats (Table 1); format: in vivo, male rats; conditions: 8 doses; for Change in percentage of serum triglyceride, column B / Change in percentage of serum cholesterol, column B: B: referred to untreated control group; for Change in percentage of serum cholesterol, column A / Change in percentage of serum triglyceride, column A: A: referred to the initial value of the treated group
Experimental: 1. Male rats having a normal serum lipid content were being treated for eight days with different daily doses mentioned in Table 1. The values given in that Table stand for a change in the serum concentrations of certain lipid classes.
The doses were administered per os by means of an esophagal sound. Generally, prior to and after the treatment, blood samples were taken and the concentration of cholesterol in the serum was determined according to the method of Lauber and Richterich and that of triglycerides according to the method of Eggstein and Kreutz. In the examples of the following Table 1, the changes in the serum lipid values due to the treatment with the substances of the invention are defined as follows:
a. The changes in percent in the final value of the treated group, referred to the initial value of the treated group, the initial value being 100 per cent, and
b. the change in the final value of the treated group, referred to the final value of an accompanying untreated control group, the untreated group's value being defined as 100 %. Thus, the value given in columns A is the change in percentage referred to the initial value, the value given in columns B is the change in percentage of the treated group, referred to the untreated control group.

in vivo = conditions: mouse, po, male mice
[1] = test system: serum lipid concentration; assay: Dietetic-medicamentous hyperlipemia (hypercholesteremia) of male rats (Table 2); format: in vivo; conditions: 100 mg/kg/day, 8 doses, esophagal sound; hyperlipemic diet
From the text: 2. Dietetic-medicamentous hypercholesteremia of male rats
All the animals were fed with a diet food containing 2% of cholesterol, 2% of sodium cholate, 0.3% of methyl-thio-uracil, 20% of coco fat and 44% of cane sugar. The serum lipid concentration of the animals treated with the cited compounds was compared to that of an untreated control group being on the same diet which causes the serum cholesteral concentration to rise within one week to about 10 times the initial value, that of the serum triglycerides to 3 times and that of the phospholipids in the serum to 4 times the initial value. The lipid phosphorus was determined according to the method of Messrs. Boehringer Mannheim W. Germany. At the same time as the diet was offered the cited compounds were administered once a day to groups of rats, each containing 10 animals, over a period of 8 days by means of an esophagal sound. The change in percentage in the serum lipid concentration as compared to the control group (diet without active substance) is indicated in Table 2.

blood sugar level [2] = assay: Blood sugar level in alloxan-diabetic male rats; format: in vivo; conditions: 100 mg/kg/day per os, 8 days, 20 hours after the last administration, vs untreated group; insulin-substituted
Experimental: (§1) The hypoglycemic activity had been established as follows, the blood sugar level having been determined by means of an autoanalyzer:
1. On alloxan-diabetic male rats substituted with insulin before the beginning of the test, that were offered food ad libitum, 100 mg/kg/day of 4-hydroxy-3,5-di-t.-butyl-phenylpropionic acid n-octadecyl ester administered per os once a day during 8 successive days lowered the blood sugar level 20 hours after the last administration by -18% as compared with an untreated group.

blood sugar level [3] = assay: Tolerance test with oral glucose in fasted male rats; format: in vivo
Experimental: as §1
2. In the tolerance test with glucose doses administered per os to male rats that had fasted for 22 hours and that were administered 19 and 3 hours before the glucose administration (1g/kg) per os 100 mg/kg of the test preparation, 4-hydroxy-3,5-di-t.-butyl-phenyl-propionic acid n-octadecyl ester caused a lowering of the blood sugar level by -21% 3 hours after being fed with glucose.

blood sugar level [4] = assay: Blood sugar level in male rats fed fructose doses; format: in vivo; conditions: 100 mg/kg/day, 3 days pretreatment, 24 hours after the last administration; fructose doses per os
Experimental: as §1
In the case of male rats having been feed fructose doses per os and pretreated for 3 days with 100 mg/kg/day of the same compound, the blood sugar level was lowered by -17% 24 hours after the last administration.

With `CCCCOC(=O)CCc1cc(C(C)(C)C)c(O)c(C(C)(C)C)c1` [Example 6, 4-hydroxy-3,5-di-t.-butylphenyl-propionic acid-n-butyl ester] the “Change in percentage of serum triglyceride, column B” value (serum lipid values; 10 mg/kg/day p.o.) was -17%, the “Change in percentage of serum triglyceride, column B” value (serum lipid values; 30 mg/kg/day p.o.) was -27% and the “Change in percentage of serum cholesterol, column A” value (serum lipid values; 100 mg/kg/day p.o.) was -10%. The “Change in percentage of serum triglyceride, column A” value (serum lipid values; 100 mg/kg/day p.o.) was -54% and the “Change in percentage of serum triglyceride, column B” value (serum lipid values; 100 mg/kg/day p.o.) was -58%.

In the case of `CCOC(=O)C(C)(C)Oc1ccc(Cl)cc1` [Clofibrat, reference compound], the “Change in percentage of serum cholesterol, column A” value (serum lipid values; 30 mg/kg/day p.o.) is reported as -7%, the “Change in percentage of serum triglyceride, column A” value (serum lipid values; 30 mg/kg/day p.o.) is reported as “+4%” and the “Change in percentage of serum cholesterol, column B” value (serum lipid values; 30 mg/kg/day p.o.) is reported as -7%. The “Change in percentage of serum triglyceride, column B” value (serum lipid values; 30 mg/kg/day p.o.) was -13%, the LD50 (in vivo) was 2000 to 2500 mg/kg and the “Change in percentage of serum cholesterol referred to the untreated group” value [1] was 0%.

For `CCCCCCCCCCCCCCCCCCOC(=O)CCc1cc(C(C)(C)C)c(O)c(C(C)(C)C)c1` [Example 3, 4-hydroxy-3,5-di-t.-butyl-phenyl-propionic acid-n-octadecyl ester], the “Change in percentage of serum triglyceride, column B” value (serum lipid values; 30 mg/kg/day p.o.) was -25%, the “Change in percentage of serum triglyceride, column A” value (serum lipid values; 100 mg/kg/day p.o.) was -33% and the “Change in percentage of serum triglyceride, column B” value (serum lipid values; 100 mg/kg/day p.o.) was -16%. The LD50 (in vivo) was 8000 mg/kg, the “lowering of the blood sugar level” value (blood sugar level [2]) was -18% and the “lowering of the blood sugar level” value (blood sugar level [3]; 100 mg/kg per os 19 and 3 hours before glucose (1g/kg), 3 hours after glucose, fasted 22 hours) was -21%. For the same molecule, the “lowering of the blood sugar level compared with phenformin” value (blood sugar level [3]; 100 mg/kg per os, comparison preparation phenformin) was “in the same order of magnitude as that obtained with the comparison preparation phenformin” and the “lowering of the blood sugar level” value (blood sugar level [4]) was -17%.

In the case of `CC(C)(C)c1cc(CCC(=O)O)cc(C(C)(C)C)c1O` [Example 2, 4-hydroxy-3,5-di-t.-butyl-phenyl-propionic acid], the “Change in percentage of serum triglyceride, column A” value (serum lipid values; 10 mg/kg/day p.o.) is reported as -21%, the “Change in percentage of serum triglyceride, column B” value (serum lipid values; 10 mg/kg/day p.o.) is reported as -26% and the “Change in percentage of serum triglyceride, column A” value (serum lipid values; 30 mg/kg/day p.o.) is reported as -23%. For the same molecule, the “Change in percentage of serum triglyceride, column B” value (serum lipid values; 30 mg/kg/day p.o.) was -38%, the “Change in percentage of serum triglyceride, column A” value (serum lipid values; 100 mg/kg/day p.o.) was -32% and the “Change in percentage of serum cholesterol, column B” value (serum lipid values; 100 mg/kg/day p.o.) was -12%. For the same molecule, the “Change in percentage of serum triglyceride, column B” value (serum lipid values; 100 mg/kg/day p.o.) was -38%.

In the case of `CC(C)(C)c1cc(CCC(=O)OCC(COC(=O)CCc2cc(C(C)(C)C)c(O)c(C(C)(C)C)c2)(COC(=O)CCc2cc(C(C)(C)C)c(O)c(C(C)(C)C)c2)COC(=O)CCc2cc(C(C)(C)C)c(O)c(C(C)(C)C)c2)cc(C(C)(C)C)c1O` [Example 7, Tetra-(4-hydroxy-3,5-di-t.-butylphenyl-propionic acid)-pentaerythritol ester], the “Change in percentage of serum triglyceride, column B” value (serum lipid values; 30 mg/kg/day p.o.) is reported as -27%, the “Change in percentage of serum cholesterol, column A” value (serum lipid values; 100 mg/kg/day p.o.) is reported as -5% and the “Change in percentage of serum cholesterol, column B” value (serum lipid values; 100 mg/kg/day p.o.) is reported as -7%. For the same molecule, the “Change in percentage of serum triglyceride, column B” value (serum lipid values; 100 mg/kg/day p.o.) was -17%.

With `COC(=O)CCc1cc(C(C)(C)C)c(O)c(C(C)(C)C)c1` [Example 5, 4-hydroxy-3,5-di-t.-butylphenyl-propionic acid methyl ester] the “Change in percentage of serum triglyceride, column B” value (serum lipid values; 10 mg/kg/day p.o.) was -3%, the “Change in percentage of serum triglyceride, column B” value (serum lipid values; 30 mg/kg/day p.o.) was -42% and the “Change in percentage of serum cholesterol, column A” value (serum lipid values; 100 mg/kg/day p.o.) was -3%. For the same molecule, the “Change in percentage of serum triglyceride, column A” value (serum lipid values; 100 mg/kg/day p.o.) was -60% and the “Change in percentage of serum triglyceride, column B” value (serum lipid values; 100 mg/kg/day p.o.) was -71%.
